# From US9421211B2, “N,N′-diarylurea compounds and N,N′-diarylthiourea compounds as inhibitors of translation initiation” (President and Fellows of Harvard College, priority 2009, dated 2016)
# Columns and labels:
# [1] = system: eIF2.GTP.Met-tRNAi ternary complex; experiment: Ternary complex assay: dual luciferase F-luc/R-luc ratio in KLN-tTA/pBISA-DL(ATF-4) cells (HTS screen, 96-well hit confirmation, dose response); assay type: cell-based, mouse; conditions: siRNA to PKR, PERK, GCN2; also CRL-2813 cells
# Source text: For assay development, a bi-directional plasmid was designed in which a common promoter/enhancer complex drives the transcription of firefly luciferase (F-luc) ORF fused to the 5′ untranslated region (UTR) of ATF-4, and of the renilla luciferase (R-luc) ORF fused to a 90-nucleotide 5′ UTR derived from the plasmid (FIG. 6A). Because the tetracycline-regulated transactivator ((tTA), required for driving transcription from this vector) is not normally expressed in the mammalian cells, stable KLN cancer cells were constructed that expressed tTA (KLN-tTA).
# The KLN-tTA colonies that drove expression of reporter genes from pBISA-DL plasmid were selected by transient transfection and dual luciferase assay. One of these KLN-tTA cell lines was transfected with the pBISA-DL^(ATF-4) expression vector, stable colonies were selected by dual luciferase assay and expanded. To determine if reduced availability of the eIF2.GTP.Met-tRNAi ternary complex increased the translation of firefly luciferase and decreased translation of renilla luciferase, selected KLN-tTA/pBISA-DL^(ATF-4) colonies were treated with thapsigargin (TG) or tunicamycin (TU), two agents known to cause phosphorylation of eIF2α.
# This assay was then adapted for high throughput screening in 96 and 384 well plates. This was done by evaluating the cell density, length of exposure to compounds, DMSO tolerance and optimum firefly and renilla substrate. We then challenged these cells with thapsigargin or DMSO. […] Cell-based assays usually have higher variation than homogeneous in vitro assays due to position effect in the plate, and other variables associated with handling of cells and the plates.
# Screening was conducted in 384 well white opaque plates (Nalge Nunc), 100 μl volume RPMI+10% fetal bovine serum. Cells were plated at the sub-confluent density of 10,000 cells/well, and allowed to attach for a period of 16-18 hours at 37° C., 5% CO2. Compounds were added as 1 μl of a 1 mM DMSO stock solution for a final screening concentration of […] using low-volume tips for transfer (Molecular Bioproducts). Cells were then incubated in the presence of compound for an additional sixteen hours, again at 37° C., 5% CO2. Following incubation 70 μl of the culture medium was removed from each well to allow for reagent addition and plates were allowed to equilibrate to room temperature for thirty minutes. Firefly luciferase reporter activity was then read by the addition of thirty microliters of Dual Glo Luciferase reagent (Promega), followed by one hour incubation at room temperature to allow for adequate signal buildup. Luminescence counting was conducted on a Microbeta Trilux using a 1 second read time. Renilla luciferase reporter activity was measured following addition of 30 μl Stop and Glo Luciferase reagent (Promega) and incubation identical to the one carried out for the firefly luciferase one.
# Compound scores were interpreted as firefly luciferase activity divided by renilla luciferase activity, normalized to the plate's DMSO control. […] All data analysis was conducted using the BioAssay HTS software package (CambridgeSoft).
# 102,709 compounds in the NCI Open Chemical Repository were then screened using this HTS assay. […] Initial hits were confirmed by repeating the same dual luciferase assay in 96 well plates. Briefly, 20,000 cells/well were plated in triplicate for each concentration (10, 5 and 2.5 μM) of the compounds.
# CHOP mRNA = experiment: Endogenous CHOP mRNA by real-time PCR in KLN-tTA/pBISA-DL(ATF-4) cells; assay type: cell-based, mouse; conditions: siRNA to HRI, also CRL-2813 cells
# Source text: (§1) For example, reducing amount of the ternary complex increases translation of ATF-4, which results in elevated expression of CHOP mRNA and protein. Therefore, expression of endogenous CHOP mRNA and CHOP protein in KLN-tTA/pBISA-DL^(ATF-4) cells were utilized as secondary assays to validate N,N′-diarylurea compounds as modifiers of the eIF2.GTP.Met-tRNAi ternary complex. […] To rule out the possibility that the activity of N,N′-diarylurea compounds was confined to a single cell type, the effects of these compounds on the ternary complex assay and the expression of CHOP mRNA was assayed in CRL-2351, PC-3, CRL-2813 human breast, prostate, and melanoma cancer cell lines respectively. For the reporter gene assay, the three human cell lines were co-transfected with tTA expression vector and the pBISA-DL^(ATF-4) dual luciferase expression vector shown in FIG. 6. […] The expression of CHOP mRNA was assayed by real time PCR in the same cell lines treated with 5 or 20 μM of each compound.
# Real time PCR: For real time PCR, total RNA was extracted with TaqMan Gene Expression Cells-to-Ct™ Kit (Applied Biosystems, Branchburg, N.J.) according to manufacturer's protocol. Contaminating DNA was removed by DNase I treatment. […] To calibrate the results, all the transcripts quantities were normalized to 18S rRNA (was 18S ribosomal RNA-like mRNA in mouse). […]
# eIF2α = experiment: Phosphorylation of eIF2α in cells by Western blot (KLN-tTA/pBISA-DL(ATF-4), PC-3, CRL-2813); assay type: cell-based, mouse; human; conditions: CRL-2813, HRI siRNA
# Source text: The amount of the eIF2.GTP.Met-tRNAi complex can be reduced by phosphorylation of eIF2α, reduced expression of Met-tRNAi, or eIF2α phosphorylation independent reduction in the activity of eIF2B, the eIF2 guanine nucleotide exchange factor. To determine which of these was the case, the effect of active N,N′-diarylureas on the phosphorylation of eIF2α was studied. […] To determine if the phosphorylation of eIF2α was responsible for reduced amount of the ternary complex in the cells treated with N,N′-diarylurea compounds, previously generated PC-3 human prostate cancer cell lines in which expression of endogenous eIF2α was replaced with recombinant wild type (WT) or non-phosphorylatable eIF2α-S51A were utilized.
# Western blotting: Cell extracts were separated by SDS-PAGE and probed with anti-phosphoserine-51-eIF2 cc (PS51-eIF2α), anti-total eIF2α-specific antibodies […] (Biosource International, Hopkinton, Mass.), anti-CHOP, or anti β-actin (Santa Cruz Biotechnology, CA) as described.
# HRI [2] = target: T1, HRI (Oryctolagus cuniculus, UniProt P33279); experiment: Phosphorylation of eIF2α in heme-supplemented rabbit reticulocyte lysate; assay type: biochemical; conditions: 30 minutes at 37° C.
# T1 construct: from tissue; host or cells: rabbit reticulocyte lysate, heme supplemented
# Method: (§2) FIGS. 14A and 14B depict that N,N′-diarylurea compounds activate HRI in cell free lysates. A and B) Heme supplemented rabbit reticulocyte (a) or in-house prepared human melanoma cancer cell lysates (b) were incubated with the indicated concentration of compound 1781 for 30 minutes at 37° C. and phosphorylation of eIF2α was determined by Western blot analysis.
# (§3) Compound #1781 was added to lysates of CRL-2813 cells or heme-supplemented rabbit reticulocytes and phosphorylation of eIF2α by Western blot was determined.
# HRI [3] = target: T2, HRI (Homo sapiens, UniProt Q9BQI3); experiment: Phosphorylation of eIF2α in CRL-2813 human melanoma cell lysate; assay type: biochemical; conditions: CRL-2813 cell lysate, 30 minutes at 37° C.
# T2 construct: endogenous in cells; host or cells: CRL-2813 human melanoma cells (lysate prepared in house)
# Method: as §2, §3
# [4] = In vivo toxicity, seven day administration to mice; conditions: seven consecutive days, up to 200 mg/kg
# Method: Five female nude mice each were treated with 200 mg/kg, 100 mg/kg #1781 in 15 μl DMSO or 15 μl DMSO daily for seven days. Mice were observed daily for signs of toxicity and weighed every other day for total of 15 days and then necropsy was performed. The average body of each group is plotted against the time.
# To study toxicity effects, mice were treated with various doses of compound #1781 or vehicle.
# [5] = system: eIF2.GTP.Met-tRNAi ternary complex; experiment: ATF-4 assay (firefly/renilla luciferase ratio) in CRL-2351 cell line; assay type: cell-based, human
# Source text: as §1
# Stable and transient transfection: Cells were seeded at the density of 10^5 in 60-mm (stable transfection) or 10^4 cells per well of 96-well plate (transient transfection) plates and transfected one day later using the Qiagen Transfectamine transfection kit. For selection of stable cell lines, transfected cells were transferred to 100-mm plates and selected with appropriate antibiotics.
# Dual luciferase assay: Cells or minced tumors expressing firefly and renilla luciferases were lysed and the extracts assayed with a glow type dual luciferase assay kit, per manufacturer's instruction (Promega Inc., Madison, Wis.).
# [6] = system: KLN mouse squamous cell carcinoma cells; experiment: Cell proliferation SRB assay, KLN; assay type: cell-based; conditions: KLN cells, read-out: IC50 (μM) by SRB assay, KLN
# Method: (§4) Reduced availability of the ternary complex causes inhibition of translation initiation and thereby of cell proliferation. […] The effects of N,N′-diarylureas on the proliferation KLN mouse squamous cell carcinoma, CRL-2351 human breast, CRL-2813 human melanoma, A549 human lung and PC-3 human prostate cancer cell lines were tested.
# (§5) Cell Growth Assay: Cell Growth was Measured by the SRB Assay.
# [7] = system: CRL-2813 human melanoma cells; experiment: Cell proliferation SRB assay, CRL-2813; assay type: cell-based; conditions: CRL2813, 2813 cells, read-out: IC50 (μM) by SRB assay, 2813
# Method: as §4, with “tested. […]” for “tested.”
# as §5
# [8] = system: CRL-2351 human breast cancer cells; experiment: Cell proliferation SRB assay, CRL-2351; assay type: cell-based; conditions: Homo sapiens; 2351 cells; read-out: IC50 (μM) by SRB assay, 2351
# Method: as §4, §5
# [9] = Solubility observed at purification; assay type: physicochemical; conditions: solvents tried for purification
# Method: Because it could not be purified, this compound was removed from the structure-activity relationship (SAR) study.
# As another non-limiting example, 3,4-dichlorophenylisocyanate (250 mg, 1.330 mmol) and 2-amino-4-hydroxy-6-methylpyrimidine (166 mg, 1.330 mmol) were used following the general procedure E to synthesize 28.
# T1 sequence (P33279 whole entry): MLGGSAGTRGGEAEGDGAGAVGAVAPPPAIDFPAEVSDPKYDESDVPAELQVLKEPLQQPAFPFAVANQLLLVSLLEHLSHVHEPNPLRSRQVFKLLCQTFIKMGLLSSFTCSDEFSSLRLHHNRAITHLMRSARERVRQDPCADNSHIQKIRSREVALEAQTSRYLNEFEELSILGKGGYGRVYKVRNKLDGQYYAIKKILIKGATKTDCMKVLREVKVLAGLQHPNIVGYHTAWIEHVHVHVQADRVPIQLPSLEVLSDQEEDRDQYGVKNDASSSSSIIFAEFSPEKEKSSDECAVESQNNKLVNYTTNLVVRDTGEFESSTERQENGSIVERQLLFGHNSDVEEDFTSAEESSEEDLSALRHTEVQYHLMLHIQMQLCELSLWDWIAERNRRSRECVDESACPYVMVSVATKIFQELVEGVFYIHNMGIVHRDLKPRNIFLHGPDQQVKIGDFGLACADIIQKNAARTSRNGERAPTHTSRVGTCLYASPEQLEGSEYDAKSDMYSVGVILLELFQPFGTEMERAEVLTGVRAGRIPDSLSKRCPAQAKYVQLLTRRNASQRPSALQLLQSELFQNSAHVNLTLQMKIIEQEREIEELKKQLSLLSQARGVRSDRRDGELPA
# T2 sequence (Q9BQI3 whole entry): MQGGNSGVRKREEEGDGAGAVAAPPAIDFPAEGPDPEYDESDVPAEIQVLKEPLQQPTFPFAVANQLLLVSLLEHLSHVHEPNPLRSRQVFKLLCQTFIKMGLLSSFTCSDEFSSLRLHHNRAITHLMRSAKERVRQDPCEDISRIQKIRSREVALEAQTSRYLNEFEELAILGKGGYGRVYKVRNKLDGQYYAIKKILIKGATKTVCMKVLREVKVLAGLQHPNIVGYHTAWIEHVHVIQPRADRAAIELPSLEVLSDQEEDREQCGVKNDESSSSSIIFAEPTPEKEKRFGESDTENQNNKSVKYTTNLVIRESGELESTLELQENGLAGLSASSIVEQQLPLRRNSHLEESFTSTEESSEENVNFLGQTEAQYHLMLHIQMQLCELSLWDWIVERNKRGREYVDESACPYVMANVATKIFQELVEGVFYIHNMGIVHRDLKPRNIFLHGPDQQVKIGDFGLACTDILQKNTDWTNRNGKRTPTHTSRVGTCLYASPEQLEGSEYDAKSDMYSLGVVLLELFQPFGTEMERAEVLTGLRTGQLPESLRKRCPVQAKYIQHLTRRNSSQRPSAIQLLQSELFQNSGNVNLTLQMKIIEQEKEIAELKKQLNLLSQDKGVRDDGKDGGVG
Compound,"Induction of F-luc/R-luc ratio by the compound after knocking down PKR, PERK or GCN2 [1]",Induction of CHOP mRNA by the compound after knocking down HRI (CHOP mRNA),Induction of eIF2α phosphorylation by the compound after silencing of HRI (eIF2α),Phosphorylation of eIF2α in cell lysates (HRI [2]),Phosphorylation of eIF2α in cell lysates (HRI [3]),Effect on weight gain or food consumption of mice [4],"maximal fold induction ([5]; Homo sapiens, read-out: ATF-4 Amax: maximal activity, ratio of firefly over renilla luciferase expression)","EC (activity threshold of 5) ([5]; Homo sapiens, read-out: ATF-4 C[5] (μM): concentration corresponding to an activity threshold of 5)",Cmax ([5]; read-out: ATF-4 Cmax (μM): concentration corresponding to the maximal activity),IC50 [6],IC50 [7],IC50 [8],Solubility [9]
O=C(Nc1ccc(Cl)c(Cl)c1)Nc1ccc2nnsc2c1 [#1781],no effect,abrogated,reduced,caused phosphorylation of eIF2α,caused phosphorylation of eIF2α,no adverse effect,,,,,,,
O=C(Nc1cc(C(F)(F)F)cc(C(F)(F)F)c1)Nc1ncccc1O [Compound 28],,,,,,,5,40 µM,40 µM,15 µM,0.7 µM,0.7 µM,not soluble in any solvent
